Where two headings read alike, the source gives them in different places. Values belong to the molecule of their own block, whether it stands above or below them.
Legend:
[1] = target: T1, BCRP (ABCG2) (Homo sapiens, UniProt Q9UNQ0); assay: in vitro
T1 sequence (Q9UNQ0 1-655): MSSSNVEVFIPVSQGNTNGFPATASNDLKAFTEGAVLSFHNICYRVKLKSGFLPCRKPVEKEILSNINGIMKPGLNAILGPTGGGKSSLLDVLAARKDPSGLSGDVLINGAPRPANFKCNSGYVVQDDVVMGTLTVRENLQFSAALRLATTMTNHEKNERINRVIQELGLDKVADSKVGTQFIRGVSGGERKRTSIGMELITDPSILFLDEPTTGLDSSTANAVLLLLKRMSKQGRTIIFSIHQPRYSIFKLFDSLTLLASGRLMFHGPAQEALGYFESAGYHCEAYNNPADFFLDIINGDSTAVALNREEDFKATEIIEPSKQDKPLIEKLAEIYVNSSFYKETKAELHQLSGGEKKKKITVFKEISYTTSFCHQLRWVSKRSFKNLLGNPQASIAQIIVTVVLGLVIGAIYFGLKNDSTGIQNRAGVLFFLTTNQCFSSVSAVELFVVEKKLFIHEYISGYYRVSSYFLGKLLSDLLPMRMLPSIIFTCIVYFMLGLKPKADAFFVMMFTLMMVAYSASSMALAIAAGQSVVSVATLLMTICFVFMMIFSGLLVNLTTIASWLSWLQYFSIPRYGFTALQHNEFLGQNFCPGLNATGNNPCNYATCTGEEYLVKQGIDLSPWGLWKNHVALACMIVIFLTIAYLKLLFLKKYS
Excerpt: The uptake of ATP is plotted in pmol/mg protein/min. […] The uptake of a [3H] or [32P]-radiolabelled ATP by an ABC drug transporter selected from the group consisting of BCRP (ABCG2) or MRP1-6 (ABCC1-6) into membrane vesicles (stably overexpressing one type of ABC transporter) under conditions of low pH (compared with physiological pH) can be studied by radiochemical analysis. Subsequently, the effect of a test compound on the ABC drug transporter-mediated ATP release can be studied at different pH values (not shown in figure). • Figure 6: Schematic representation of the ABC drug transporter mediated-ATP-release assay. The transport of a [3H] or [32P]-radiolabelled ATP by an ABC drug transporter selected from the group consisting of BCRP (ABCG2) or MRP1-6 (ABCC1-6) into MDCKII cells (stably overexpressing one type of ABC drug transporter) under conditions of low extracellular pH (compared with physiological pH) and/or hypoxic conditions (0-1% O2, 5% CO2, 94-95% N2) (compared with normoxic conditions (20% O2, 5% CO2, 75% N2)) can be studied by radiochemical analysis or HPLC. Subsequently, the effect of a test compound on the ABC drug transporter-mediated ATP release can be studied at different pH values (not shown in figure). • Figure 7: Schematic representation of ABCG2 expression in normal tissues. Arrows indicate direction of substrate transport. In the brain and testis, ABCG2 is expressed mainly in the blood vessel endothelium, forming part of the blood-brain and blood-testis barrier, respectively. (from: Robey et al. Curr Pharm Biotechnol 2011) • Figure 8: Table 1: Cellular localization and function of ion exchange pumps • Figure 9: Table 2: Protein and/or gene expression of MRP/Mrp isoforms in various brain compartments in human and in mouse and in rat. Table adapted from Dallas et al. (45). • Figure 10: Chemical structure of Danshen compounds • Fig. 10 A: Chemical structures of compounds from Danshen (Salvia miltiorrhiza) • Fig. 10 B: Chemical structures of main lipophilic compounds from Danshen • Fig. 10 C: Chemical structure of main hydrophilic compounds from Danshen • Fig. 10 D: Chemical structure of Magnesium lithospermate B • Fig. 10 E: Chemical structure of salvianolic acid B • Fig. 10 F: Chemical structure of Indirubin
Membrane vesicles from (ABC transporter-transfected) Sf9 cells were prepared in isotonic vesicle buffer consisting of 50 mM Tris and 250 mM sucrose adjusted to pH 7.4. Vesicular transport assays were performed in vesicular transport assay buffer (50 mM HEPES/KOH, 100 mM KCI) as described before (Breedveld et al., 2004, 2007). The vesicular transport assay buffer and the solutions of all other reagents used in transport assays were adjusted to the appropriate pH (pH 6 or pH 7.4) by adding aliquots of HCl (37% w/w) for low pH. The pH of the final solution was controlled (Breedveld et al., 2007). […]
Curve fitting was performed by nonlinear regression analysis using the software package Graphpad Prism version 4 (GraphPad Software, San Diego, USA). Data from concentration-dependent transport assays were analyzed according to the classical Michaelis-Menten model (eq. 1) (Rowland and Tozer, 1995): v = (Vmax x [S])/(Km + [S]) [formula] where v is the rate of transport, Vmax is the maximum velocity, S is the substrate concentration, and Km is the substrate concentration at half-maximum velocity.

[2] = target: T1, BCRP (ABCG2); set-up: made in house; host or cells: Sf9 insect cells (membrane vesicles); details: 1 µM MTX; cited from earlier work
[3] = cited from earlier work
[4] = substrate: Nc1ncnc2c1ncn2[C@@H]1O[C@H](COP(=O)(O)OP(=O)(O)OP(=O)(O)O)[C@@H](O)[C@H]1O; assay: cells, lysate or membranes named; details: other: pH 6, saturable transport, 37°C, 5 min (Fig. 2A)

Molecule: CCN(CC)CCNC(=O)c1c(C)[nH]c(/C=C2\C(=O)Nc3ccc(F)cc32)c1C [sunitinib]
increase of brain accumulation ([3]; Abcb1a/b(-/-) mice): 2.3 fold | increase of brain accumulation ([3]; Abcb1a/b/Abcg2(-/-) mice): 23 fold

Molecule: COc1ccnc(C[S+]([O-])c2nc3ccc(OC(F)F)cc3[nH]2)c1OC (stereo not shown) [pantoprazole]
IC50 [1]: > 1 mM

Molecule: Nc1ncnc2c1ncn2[C@@H]1O[C@H](COP(=O)(O)OP(=O)(O)OP(=O)(O)O)[C@@H](O)[C@H]1O [[^3H]ATP, adenosine 5'-triphosphate]
transport by BCRP at pH 6 relative to physiological pH ([1]; 0.5 min, 100 µM, pH 6): 3.8 fold

B1: BCRP (ABCG2) (Homo sapiens) (protein)
chain: MSSSNVEVFIPVSQGNTNGFPATASNDLKAFTEGAVLSFHNICYRVKLKSGFLPCRKPVEKEILSNINGIMKPGLNAILGPTGGGKSSLLDVLAARKDPSGLSGDVLINGAPRPANFKCNSGYVVQDDVVMGTLTVRENLQFSAALRLATTMTNHEKNERINRVIQELGLDKVADSKVGTQFIRGVSGGERKRTSIGMELITDPSILFLDEPTTGLDSSTANAVLLLLKRMSKQGRTIIFSIHQPRYSIFKLFDSLTLLASGRLMFHGPAQEALGYFESAGYHCEAYNNPADFFLDIINGDSTAVALNREEDFKATEIIEPSKQDKPLIEKLAEIYVNSSFYKETKAELHQLSGGEKKKKITVFKEISYTTSFCHQLRWVSKRSFKNLLGNPQASIAQIIVTVVLGLVIGAIYFGLKNDSTGIQNRAGVLFFLTTNQCFSSVSAVELFVVEKKLFIHEYISGYYRVSSYFLGKLLSDLLPMRMLPSIIFTCIVYFMLGLKPKADAFFVMMFTLMMVAYSASSMALAIAAGQSVVSVATLLMTICFVFMMIFSGLLVNLTTIASWLSWLQYFSIPRYGFTALQHNEFLGQNFCPGLNATGNNPCNYATCTGEEYLVKQGIDLSPWGLWKNHVALACMIVIFLTIAYLKLLFLKKYS
Km [4]: 2.0 mM | Vmax [4]: 1.5 nmoles/mg protein/min

Further lines, with some results ahead:

net uptake into BCRP membrane vesicles ([1]; 0.5 min, 100 µM, pH 6): 80 pmol/mg protein | net uptake into BCRP membrane vesicles ([1]; 10 min, 100 µM, pH 6): 194 pmol/mg protein
Molecule: Nc1ncnc2c1ncn2[C@@H]1O[C@H](COP(=O)(O)OP(=O)(O)OP(=O)(O)O)[C@@H](O)[C@H]1O [[^32P]-γ-labeled-ATP, adenosine 5'-triphosphate]

inhibition at 100 µM ([1]; pH 6): ~46%
Molecule: CN(Cc1cnc2nc(N)nc(N)c2n1)c1ccc(C(=O)N[C@@H](CCC(=O)O)C(=O)O)cc1 [MTX, methotrexate]
ATP-dependent transport by BCRP at pH 5.1 relative to physiological pH [2]: 7 fold

Reference: patent EP2829880A1, “Method for identifying modulators of BCRP/ABCG2-mediated ATP release and use of said modulators for treating diseases” (Energeia Biosciences, priority 2013, dated 2015)
